Where a SMILES comes first, the peptide text is derived from it. [ ]: non-standard residue; d: D form. Nle = CCCC[C@H](N)C(=O)O
Key:
[1] = test system: substance P-induced scratching; type: in vivo, Male, Swiss CD-1 mice; parameters: ID50 vs SP: unit not given beside the values; conditions: for % inhibition of SP-induced scratching: mouse, in vivo; for ID50 vs SP: dose of antagonist inhibiting SP-induced scratching by 50%, intrathecal, injected simultaneously with SD90 dose of SP, parentheses = 95% fiducial limits
Excerpt: (§1) The tachykinin-induced mouse scratching assay was used to evaluate the ability of the Neurokinin B analogs of the invention to act in vivo as antagonists. This test was chosen since scratching is well documented to be a reproducible, characteristic central effect of tachykinin agonists which can be blocked by tachykinin antagonists, see Hylden and Wilcox, Brain Res. 217: 212 (1981); Piercey et al., Science 214: 1361, (1981); Vaught et al., Eur. Journal Pharmacol. 103: 355, (1984).
(§2) Male, Swiss CD-1 mice (Charles River, Kingston, NY) weighing between 18-24 g were used in all experiments. They were allowed food and water ad libitum and each animal was used only once. Substance P, Neurokinin B, bombesin (a compound which induces scratching but is not a tachykinin), [D-Pro^2,D-Trp^7,9 ]-Substance P(1-11) and the product of Example 1 were dissolved in 0.01N acetic acid. The products of Examples 2, 3 and 4 were dissolved in 0.1N NaOH; DMSO and H2 O (1:1:4.7 v/v). These vehicles, injected intrathecally to mice, produced no overt behavioral effects.
To determine the activity of substance P, Neurokinin B and bombesin, these agonists were injected intrathecally (max. volume […]) according to the method of Hylden et al. described in Eur. Journal Pharmacol. 67: 313 (1980). Following the intrathecal injection of agonist, the animals were placed into individual plexiglass observation chambers and observed for five min for the occurrence of the characteristic reciprocal hind-limb scratching response (caudallyn directed scratching of the body interchangeably by the hind limbs). Animals were scored as either responders or non-responders. In order to assess the ability and specificity of the Neurokinin B analogs to block the scratching produced by substance P, Neurokinin B and bombesin, varying doses of the antagonists were injected simultaneously with that dose of agonist causing 90% of the animals to scratch. The ID50 (that dose of antagonist which inhibits scratching produced by an agonist by 50%) was then calculated by probit analysis. In some instances, the percent inhibitions of scratching for a given dose of agonist was compared to control values by the Fishers Exact Test. The following results were obtained in the Scratching Assay: […]

[2] = Mouse Hot Plate Assay (analgesia); type: in vivo, mice; conditions: for ED50: dose producing analgesia in 50% of animals, hot plate 48° C., parentheses = 95% fiducial limits; for ED50 / Duration of Action: intrathecal; for Duration of Action: duration of the analgesic effect; for Onset of Action: time to peak analgesic activity following intrathecal injection
Experimental: Analgesic Utility: The Mouse Hot Plate Assay was used to determine the activity of compounds of the invention as analgesics. The compound vehicles were as described above in the Scratching Assay.
Mouse Hot Plate Assay: The hot plate assay was used to assess analgesic potency, see Vaught and Chipkin, Eur. Journal. Pharmacol. 79, 167-173 (1982) and references therein. In these experiments the hot plate apparatus (Technilab Instruments, Inc.) was maintained at 48±0.05° C. The response measure was the time interval between the animal being placed on the heated surface and licking or shaking its hindpaw. Test drug was administered intrathecally and at appropriate times following drug administration the reaction times redetermined. A reaction time for drug-treated animals greater than three standard deviations from the mean of the control reaction times for all the animals in the group was the criterion for an analgesic response. At least three doses with 10 animals per dose were used to construct dose response curves.

[3] = test system: Neurokinin B-induced scratching; test: Tachykinin-induced mouse scratching assay: antagonism of Neurokinin B-induced scratching; type: in vivo, Male, Swiss CD-1 mice; parameters: unit not given beside the values; conditions: dose of antagonist inhibiting NK-induced scratching by 50%; intrathecal, injected simultaneously with SD90 dose of NK; parentheses = 95% fiducial limits
Excerpt: The tachykinin-induced mouse scratching assay was used to evaluate the ability of the Neurokinin B analogs of the invention to act in vivo as antagonists.
Male, Swiss CD-1 mice (Charles River, Kingston, NY) weighing between 18-24 g were used in all experiments. They were allowed food and water ad libitum and each animal was used only once.
Following the intrathecal injection of agonist, the animals were placed into individual plexiglass observation chambers and observed for five min for the occurrence of the characteristic reciprocal hind-limb scratching response (caudallyn directed scratching of the body interchangeably by the hind limbs). Animals were scored as either responders or non-responders. In order to assess the ability and specificity of the Neurokinin B analogs to block the scratching produced by substance P, Neurokinin B and bombesin, varying doses of the antagonists were injected simultaneously with that dose of agonist causing 90% of the animals to scratch. […] In some instances, the percent inhibitions of scratching for a given dose of agonist was compared to control values by the Fishers Exact Test.

[4] = test system: bombesin-induced scratching; type: in vivo, Male, Swiss CD-1 mice; conditions: % inhibition of scratching at 20 μg antagonist, intrathecal
Excerpt: as §1, §2
To determine the activity of substance P, Neurokinin B and bombesin, these agonists were injected intrathecally (max. volume […]) according to the method of Hylden et al. described in Eur. Journal Pharmacol. 67: 313 (1980). […] Animals were scored as either responders or non-responders. […]

CCCC[C@H](NC(=O)[C@H](CC(C)C)NC(=O)[C@@H](Cc1c[nH]c2ccccc12)NC(=O)[C@@H](NC(=O)[C@@H](Cc1c[nH]c2ccccc12)NC(=O)[C@H](Cc1ccccc1)NC(=O)[C@@H](CC(=O)O)NC(=O)[C@H](Cc1c[nH]cn1)NC(=O)[C@H]1CCCN1C(=O)[C@@H](N)CC(=O)O)C(C)C)C(N)=O [Example 4, Asp^1 -D-Pro^2 -His^3 -D-Asp^4 -Phe^5 -D-Trp^6 -Val^7 -D-Trp^8 -Leu^9 -Nle^10 -NH2] (H-D[dP]H[dD]F[dW]V[dW]L[Nle]-NH2)
% inhibition of SP-induced scratching [1]: 50%
ED50 [2]: 10.0(5.5-18.2) μg
Duration of Action [2]: ≤ 60 min
Onset of Action [2]: 20 min

[D-Pro^2,D-Trp^7,9 ]-Substance P(1-11) [[D-Pro^2,D-TrP^7,9]-SP(1-11), reference compound]
ID50 vs. NK [3]: 2.6(0.8-4.8)
ID50 vs SP [1]: 4.6(2.9-6.9)
% Inhibition of Bombesin [4]: 20%
ED50 [2]: 5.5(3.2-6.8) μg
Duration of Action [2]: ≤ 15 min
Onset of Action [2]: 5 min

CCCC[C@H](NC(=O)[C@H](CC(C)C)NC(=O)[C@@H](Cc1c[nH]c2ccccc12)NC(=O)[C@@H](NC(=O)[C@@H](Cc1c[nH]c2ccccc12)NC(=O)[C@H](Cc1ccccc1)NC(=O)[C@H](CC(=O)O)NC(=O)[C@H](Cc1c[nH]cn1)NC(=O)[C@H]1CCCN1C(=O)[C@H](N)CC(=O)O)C(C)C)C(N)=O [Example 2, D-Asp^1 -D-Pro^2 -His^3 -Asp^4 -Phe^5 -D-Trp^6 -Val^7 -D-Trp^8 -Leu^9 -Nle^10 -NH2] (H-[dD][dP]HDF[dW]V[dW]L[Nle]-NH2)
% inhibition of SP-induced scratching [1]: 90%
ED50 [2]: 7.5(5.9-9.5) μg
Duration of Action [2]: 120 min
Onset of Action [2]: 20 min

CCCC[C@H](NC(=O)[C@H](CC(C)C)NC(=O)[C@@H](Cc1c[nH]c2ccccc12)NC(=O)[C@@H](NC(=O)[C@@H](Cc1c[nH]c2ccccc12)NC(=O)[C@H](Cc1ccccc1)NC(=O)[C@@H](CC(=O)O)NC(=O)[C@H](Cc1c[nH]cn1)NC(=O)[C@H]1CCCN1C(=O)[C@H](N)CC(=O)O)C(C)C)C(N)=O [Example 3, D-Asp^1 -D-Pro^2 -His^3 -D-Asp^4 -Phe^5 -D-Trp^6 -Val^7 -D-Trp^8 -Leu^9 -Nle^10 -NH2] (H-[dD][dP]H[dD]F[dW]V[dW]L[Nle]-NH2)
% inhibition of SP-induced scratching [1]: 70%
ED50 [2]: 10.4(7.7-13.2) μg
Duration of Action [2]: ≤ 90 min
Onset of Action [2]: 20 min

CCCC[C@H](NC(=O)[C@H](CC(C)C)NC(=O)[C@@H](Cc1c[nH]c2ccccc12)NC(=O)[C@@H](NC(=O)[C@@H](Cc1c[nH]c2ccccc12)NC(=O)[C@H](Cc1ccccc1)NC(=O)[C@H](CC(=O)O)NC(=O)[C@H](Cc1c[nH]cn1)NC(=O)[C@H]1CCCN1C(=O)[C@@H](N)CC(=O)O)C(C)C)C(N)=O [Example 1, Asp^1 -D-Pro^2 -His^3 -Asp^4 -Phe^5 -D-Trp^6 -Val^7 -D-Trp^8 -Leu^9 -Nle^10 -NH2] (H-D[dP]HDF[dW]V[dW]L[Nle]-NH2)
ID50 vs. NK [3]: 0.6(0.3-1.2)
ID50 vs SP [1]: 3.4(2.3-5.2)
ED50 [2]: 4.6(3.0-6.4) μg
Duration of Action [2]: ≥ 90 min
Onset of Action [2]: 20 min

— patent US4665157A, “Peptide antagonists of neurokinin B” (priority 1985, dated 1987)
